Experimental data: the supplement of paper PMC11061612

Legend:
Test in all cases: combination Emax (second highest fraction inhibited in the dose matrix, 72 h); higher = more inhibition; extreme values may be limits of the assay
[1] = tested on: Becker (Low Grade Glioma)
In short: (§1)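 Cell lines in DMEM/F12 or RPMI with 10% FBS were plated in 1536-well plates, held 24 hours at 37°C, 5% CO2, then given two-drug dose matrices for 72 hours (DMSO typically 0.2%). Viability was read by CellTiter-Glo 2.0 luminescence and scaled as inhibition from 0 (vehicle wells) to 1 (blank wells). Combination Emax is the second-highest inhibition in the matrix; Bliss excess is observed combination effect minus expected EA + EB − EA·EB, EA and EB being single-agent effects.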

[2] = tested on: KYSE-70 (Esophageal Squamous Cell Carcinoma)
In short: as §1

[3] = tested on: PC-14 (Lung Adenocarcinoma)
In short: as §1

[4] = tested on: NCI-H196 (Small Cell Lung Carcinoma)
In short: as §1

[5] = tested on: KYM-1 (Rhabdomyosarcoma)
In short: as §1

[6] = tested on: RL95-2 (Endometrial Carcinoma)
In short: as §1

[7] = tested on: EB-3 (Burkitt's Lymphoma)
In short: as §1

[8] = tested on: RMG-I (Ovarian Carcinoma)
In short: as §1

[9] = tested on: PANC-02-03 (Pancreatic Carcinoma)
In short: as §1

[10] = tested on: CML-T1 (Chronic Myelogenous Leukemia)
In short: as §1

[11] = tested on: COLO-684 (Endometrial Carcinoma)
In short: as §1

[12] = tested on: NCI-H1563 (Lung Adenocarcinoma)
In short: as §1

[13] = tested on: BALL-1 (B-Lymphoblastic Leukemia)
In short: as §1

[14] = tested on: RERF-LC-KJ (Lung Adenocarcinoma)
In short: as §1

[15] = tested on: NCI-H1623 (Lung Adenocarcinoma)
In short: as §1

[16] = tested on: NKM-1 (Acute Myeloid Leukemia)
In short: as §1

[17] = tested on: AN3-CA (Endometrial Carcinoma)
In short: as §1

[18] = tested on: SNU-175 (Colorectal Carcinoma)
In short: as §1

[19] = tested on: HuO-3N1 (Osteosarcoma)
In short: as §1

[20] = tested on: CHL-1 (Melanoma)
In short: as §1

SMILES	combination Emax [1]	combination Emax [2]	combination Emax [3]	combination Emax [4]	combination Emax [5]	combination Emax [6]	combination Emax [7]	combination Emax [8]	combination Emax [9]	combination Emax [10]	combination Emax [11]	combination Emax [12]	combination Emax [13]	combination Emax [14]	combination Emax [15]	combination Emax [16]	combination Emax [17]	combination Emax [18]	combination Emax [19]	combination Emax [20]
COc1cc2ncnc(Nc3ccc(F)c(Cl)c3)c2cc1OCCCN1CCOCC1 [Gefitinib] + CC(C)n1c(=O)n(C)c2cnc3cc(F)c(-c4ccc(OCCCN5CCCCC5)nc4)cc3c21 [AZD1390] (first compound max 10 µM, 7x7, partner max 0.3 µM)	0.126	0.098	0.752	0.0162	0.224	0.0606	0.456	0.413	0.266	0.148	0.0995	0.228	0.279	0.351	0.904	0.167	0.01	0.456	0.0711	0.409
NC1(C(=O)N[C@@H](CCO)c2ccc(Cl)cc2)CCN(c2ncnc3[nH]ccc23)CC1 [Capivasertib] + CC(C)n1c(=O)n(C)c2cnc3cc(F)c(-c4ccc(OCCCN5CCCCC5)nc4)cc3c21 [AZD1390] (first compound max 10 µM, 7x7, partner max 0.3 µM)	0.522	0.259	0.392	0.267	0.52	0.823	0.522	0.292	0.192	0.656	0.56	0.452	0.576	0.449	0.477	0.459	0.756	0.269	0.46	0.126
COc1nnc2ccc(N3CCC(c4ccc(OCCN5CCN(C)C(=O)[C@H]5C)cc4)CC3)nn12 [AZD5153] + Cn1cnc2c(F)c(Nc3ccc(Br)cc3Cl)c(C(=O)NOCCO)cc21 [Selumetinib] (first compound max 1 µM, 7x7, partner max 10 µM)	0.388	0.424	0.589	0.276	0.972	0.66	0.706	0.571	0.866	0.452	0.549	0.465	0.859	0.868	0.706	0.995	0.268	0.742	0.356	0.666
COc1cccc(OCCCN)c1-c1cc(Nc2cnc(C#N)cn2)n[nH]1 [Prexasertib] + CCc1c2c(nc3ccc(O)cc13)-c1cc3c(c(=O)n1C2)COC(=O)[C@]3(O)CC [SN-38] (first compound max 1 µM, 7x7, partner max 0.3 µM)	0.816	0.869	0.894	0.659	0.97	0.979	0.87	0.505	0.756	1	0.956	0.629	1	0.903	0.987	0.938	0.946	0.734	0.808	0.877
Cn1cnc2c(F)c(Nc3ccc(Br)cc3Cl)c(C(=O)NOCCO)cc21 [Selumetinib] + C=CCn1c(=O)c2cnc(Nc3ccc(N4CCN(C)CC4)cc3)nc2n1-c1cccc(C(C)(C)O)n1 [AZD1775] (first compound max 10 µM, partner max 1 µM)	0.309	0.328	0.928	0.347	0.591	0.587	0.703	0.359	0.572	0.939	0.708	0.303	1	0.401	0.607	0.875	0.354	0.718	0.259	0.572
CN(C)CCCOc1ccc(-c2ccc3ncc4c(c3c2)n(C2CCOCC2)c(=O)n4C)cn1 [AZD0156] + CCN(CCO)CCCOc1ccc2c(Nc3cc(CC(=O)Nc4cccc(F)c4)[nH]n3)ncnc2c1 [AZD2811] (first compound max 1 µM, 7x7, partner max 1 µM)	0.0601	0.161	0.202	0.0373	0.0599	0.557	0.425	0.093	0.163	0.259	0.201	0.311	0.634	0.359	0.0312	0.473	0.27	0.604	0.15	0.194
Cn1cnc2c(F)c(Nc3ccc(Br)cc3Cl)c(C(=O)NOCCO)cc21 [Selumetinib] + CCN(CCO)CCCOc1ccc2c(Nc3cc(CC(=O)Nc4cccc(F)c4)[nH]n3)ncnc2c1 [AZD2811] (first compound max 10 µM, 7x7, partner max 1 µM)	0.296	0.21	0.587	0.0609	0.318	0.87	0.219	0.364	0.475	0.765	0.14	0.232	0.477	0.289	0.331	0.758	0.268	0.956	0.181	0.257
C[C@@H]1COCCN1c1cc(C2([S@](C)(=N)=O)CC2)nc(-c2ccnc3[nH]ccc23)n1 [AZD6738] + O=C(c1cc(Cc2n[nH]c(=O)c3ccccc23)ccc1F)N1CCN(C(=O)C2CC2)CC1 [Olaparib] (first compound max 10 µM, 7x7, partner max 10 µM)	0.601	0.45	0.816	0.347	0.792	0.641	0.617	0.414	0.692	0.966	0.685	0.223	0.983	0.326	0.693	0.902	0.577	0.532	0.339	0.577
NC1(C(=O)N[C@@H](CCO)c2ccc(Cl)cc2)CCN(c2ncnc3[nH]ccc23)CC1 [Capivasertib] + C[C@@H]1COCCN1C2=NC(=NC(=C2)C3(CC3)[S@](=N)(=O)C)C4=C5C=CNC5=NC=C4 [AZD6738] (first compound max 10 µM, 7x7, partner max 10 µM)	0.747	0.377	0.854	0.408	0.969	0.886	0.651	0.385	0.474	0.988	0.798	0.501	1	0.478	0.82	0.933	0.849	0.709	0.592	0.732
CN(CCO)CC[C@H](CSc1ccccc1)Nc1ccc(S(=O)(=O)NC(=O)c2ccc(N3CCC([C@@H](O)c4ccccc4-c4ccc(Cl)cc4)CC3)cc2)cc1S(=O)(=O)C(F)(F)F [AZD4320] + CN(C)CCCOc1ccc(-c2ccc3ncc4c(c3c2)n(C2CCOCC2)c(=O)n4C)cn1 [AZD0156] (first compound max 1 µM, 7x7, partner max 1 µM)	0.0869	0.115	0.17	0.171	0.14	0.124	0.387	0.79	0.138	0.987	0.148	0.321	1	0.267	0.191	1	0.27	0.467	0.164	0.113
CN(CCO)CC[C@H](CSc1ccccc1)Nc1ccc(S(=O)(=O)NC(=O)c2ccc(N3CCC([C@@H](O)c4ccccc4-c4ccc(Cl)cc4)CC3)cc2)cc1S(=O)(=O)C(F)(F)F [AZD4320] + C[C@@H]1COCCN1C2=NC(=NC(=C2)C3(CC3)[S@](=N)(=O)C)C4=C5C=CNC5=NC=C4 [AZD6738] (first compound max 1 µM, 7x7, partner max 10 µM)	0.846	0.493	0.93	0.397	0.95	0.751	0.578	0.882	0.615	1	0.728	0.433	1	0.324	0.871	1	0.637	0.936	0.479	0.893
Cc1nc(Nc2ncc(C(=O)Nc3c(C)cccc3Cl)s2)cc(N2CCN(CCO)CC2)n1 [Dasatinib] + CC(=O)Nc1cccc(-n2c(=O)n(C3CC3)c(=O)c3c(Nc4ccc(I)cc4F)n(C)c(=O)c(C)c32)c1 [Trametinib] (first compound max 2 µM, 7x7, partner max 1 µM)	0.5	0.278	1	0.103	0.401	0.405	0.362	0.505	0.836	0.966	0.0848	0.447	0.257	0.436	0.576	0.899	0.491	0.425	0.493	0.409
COc1nnc2ccc(N3CCC(c4ccc(OCCN5CCN(C)C(=O)[C@H]5C)cc4)CC3)nn12 [AZD5153] + C=CCn1c(=O)c2cnc(Nc3ccc(N4CCN(C)CC4)cc3)nc2n1-c1cccc(C(C)(C)O)n1 [AZD1775] (first compound max 1 µM, partner max 1 µM)	0.384	0.47	0.883	0.473	0.901	0.621	0.814	0.592	0.645	0.945	0.744	0.564	1	0.957	0.59	0.904	0.435	0.813	0.466	0.624
